pEC50: −log10 of the molar value.
Each molecule was assayed on HIV-IIIb (assay: Test A: Antiviral Assay in MT4 Cells). Conditions: Human immunodeficiency virus 1, IIIB, MT4, 120 h.
Assay type: cell-based
Method in brief: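 Read-out: CellTiter-Glo chemiluminescence after 5-day incubation at 37 °C. Compounds tested as 3-fold serial dilutions (10 concentrations, quadruplicate) in RPMI 1640 with 10% FBS, on MT-4 cells pre-infected at 37 °C with HIV-IIIb at 0.004 m.o.i.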

SMILES | pEC50
Cc1cc2nc(-c3cccc(N4CCN(C(C)C)CC4)n3)sc2c(-c2ccc(Cl)cc2)c1[C@H](OC(C)(C)C)C(=O)O [Compound 307, (S)-2-tert-butoxy-2-(7-(4-chlorophenyl)-2-(6-(4-isopropylpiperazin-1-yl)pyridin-2-yl)-5-methylbenzo[d]thiazol-6-yl)acetic acid] | 8.40
Cc1cc2nc(-c3nc(-c4ccc5c(cnn5C)c4)cs3)sc2c(-c2ccc(Cl)cc2)c1[C@H](OC(C)(C)C)C(=O)O [Compound 310, (S)-2-tert-butoxy-2-(7-(4-chlorophenyl)-5-methyl-2-(4-(1-methyl-1H-indazol-5-yl)thiazol-2-yl)benzo[d]thiazol-6-yl)acetic acid] | 7.59

Same assay, conditions: Human immunodeficiency virus 1, IIIB, MT4, 120 h, Table 2; MT-4 cells infected with HIV-IIIb, 5 days of incubation, CellTiter-Glo; read-out: EC50

SMILES | pEC50
Cc1cc2nc(-c3ccc4nc(C)n(C5CN(C)C5)c4c3)sc2c(-c2ccc(Cl)cc2)c1[C@H](OC(C)(C)C)C(=O)O [Compound 297, (S)-2-tert-butoxy-2-(7-(4-chlorophenyl)-5-methyl-2-(2-methyl-1-(1-methylazetidin-3-yl)-1H-benzo[d]imidazol-6-yl)benzo[d]thiazol-6-yl)acetic acid] | 7.77
Cc1cc2nc(-c3ccc4nc(C)n(C5CNC5)c4c3)sc2c(-c2ccc(Cl)cc2)c1[C@H](OC(C)(C)C)C(=O)O [Compound 298, (S)-2-(2-(1-(azetidin-3-yl)-2-methyl-1H-benzo[d]imidazol-6-yl)-7-(4-chlorophenyl)-5-methylbenzo[d]thiazol-6-yl)-2-tert-butoxyacetic acid] | 6.74
Cc1cc2nc(-c3ccc4nc(C)n([C@@H]5CCNC5)c4c3)sc2c(-c2ccc(Cl)cc2)c1[C@H](OC(C)(C)C)C(=O)O [Compound 299, (S)-2-tert-butoxy-2-(7-(4-chlorophenyl)-5-methyl-2-(2-methyl-1-((R)-pyrrolidin-3-yl)-1H-benzo[d]imidazol-6-yl)benzo[d]thiazol-6-yl)acetic acid] | 6.89
Cc1cc2nc(-c3ccc4nc(C)n([C@@H]5CCN(C(C)C)C5)c4c3)sc2c(-c2ccc(Cl)cc2)c1[C@H](OC(C)(C)C)C(=O)O [Compound 300, (S)-2-tert-butoxy-2-(7-(4-chlorophenyl)-2-(1-((R)-1-isopropylpyrrolidin-3-yl)-2-methyl-1H-benzo[d]imidazol-6-yl)-5-methylbenzo[d]thiazol-6-yl)acetic acid] | 7.92
Cc1cc2nc(-c3ccc4nc(C)n([C@H]5CCNC5)c4c3)sc2c(-c2ccc(Cl)cc2)c1[C@H](OC(C)(C)C)C(=O)O [Compound 301, (S)-2-tert-butoxy-2-(7-(4-chlorophenyl)-5-methyl-2-(2-methyl-1-((S)-pyrrolidin-3-yl)-1H-benzo[d]imidazol-6-yl)benzo[d]thiazol-6-yl)acetic acid] | 6.96
Cc1cc2nc(-c3cnc4c(c3)nc(C)n4C)sc2c(-c2ccc(Cl)cc2)c1[C@H](OC(C)(C)C)C(=O)O [Compound 302, (S)-2-tert-butoxy-2-(7-(4-chlorophenyl)-2-(2,3-dimethyl-3H-imidazo[4,5-b]pyridin-6-yl)-5-methylbenzo[d]thiazol-6-yl)acetic acid] | 8.10
Cc1cc2nc(-c3ccc4c(c3)[nH]c(=O)n4C)sc2c(-c2ccc(Cl)cc2)c1[C@H](OC(C)(C)C)C(=O)O [Compound 303, (S)-2-tert-butoxy-2-(7-(4-chlorophenyl)-5-methyl-2-(1-methyl-2-oxo-2,3-dihydro-1H-benzo[d]imidazol-5-yl)benzo[d]thiazol-6-yl)acetic acid] | 7.72
Cc1cc2nc(-c3cnc(C)c(-c4ccc5c(cnn5C)c4)c3)sc2c(-c2ccc(Cl)cc2)c1[C@H](OC(C)(C)C)C(=O)O [Compound 305, (S)-2-tert-butoxy-2-(7-(4-chlorophenyl)-5-methyl-2-(6-methyl-5-(1-methyl-1H-indazol-5-yl)pyridin-3-yl)benzo[d]thiazol-6-yl)acetic acid] | 8.00
Cc1cc2nc(-c3cc(-c4ccc5c(cnn5C)c4)cnc3C)sc2c(-c2ccc(Cl)cc2)c1[C@H](OC(C)(C)C)C(=O)O [Compound 306, (S)-2-tert-butoxy-2-(7-(4-chlorophenyl)-5-methyl-2-(2-methyl-5-(1-methyl-1H-indazol-5-yl)pyridin-3-yl)benzo[d]thiazol-6-yl)acetic acid] | 7.85
Cc1cc2nc(-c3cccc(N4CCN(C5COC5)CC4)n3)sc2c(-c2ccc(Cl)cc2)c1[C@H](OC(C)(C)C)C(=O)O [Compound 308, (S)-2-tert-butoxy-2-(7-(4-chlorophenyl)-5-methyl-2-(6-(4-(oxetan-3-yl)piperazin-1-yl)pyridin-2-yl)benzo[d]thiazol-6-yl)acetic acid] | 8.22
Cc1cc2nc(-c3cccc(-c4ccc5c(cnn5C)c4)n3)sc2c(-c2ccc(Cl)cc2)c1[C@H](OC(C)(C)C)C(=O)O [Compound 309, (S)-2-tert-butoxy-2-(7-(4-chlorophenyl)-5-methyl-2-(6-(1-methyl-1H-indazol-5-yl)pyridin-2-yl)benzo[d]thiazol-6-yl)acetic acid] | 7.43
Cc1cc2nc(-c3nc(-c4ccc5c(cnn5C)c4)ccc3N)sc2c(-c2ccc(Cl)cc2)c1[C@H](OC(C)(C)C)C(=O)O [Compound 311, (S)-2-(2-(3-amino-6-(1-methyl-1H-indazol-5-yl)pyridin-2-yl)-7-(4-chlorophenyl)-5-methylbenzo[d]thiazol-6-yl)-2-tert-butoxyacetic acid] | 7.35
Cc1cc2nc(-c3cn(C)c(-c4ccc5c(cnn5C)c4)n3)sc2c(-c2ccc(Cl)cc2)c1[C@H](OC(C)(C)C)C(=O)O [Compound 312, (S)-2-tert-butoxy-2-(7-(4-chlorophenyl)-5-methyl-2-(1-methyl-2-(1-methyl-1H-indazol-5-yl)-1H-imidazol-4-yl)benzo[d]thiazol-6-yl)acetic acid] | 7.43
Cc1ccc(-c2nc3cc(C)c([C@H](OC(C)(C)C)C(=O)O)c(-c4ccc(Cl)cc4)c3s2)nc1-c1ccc2c(cnn2C)c1 [Compound 313, (S)-2-tert-butoxy-2-(7-(4-chlorophenyl)-5-methyl-2-(5-methyl-6-(1-methyl-1H-indazol-5-yl)pyridin-2-yl)benzo[d]thiazol-6-yl)acetic acid] | 7.85
Cc1cc2nc(-c3ccc4c(c3)c(C)nn4Cc3ccccc3)sc2c(-c2ccc(Cl)cc2)c1[C@H](OC(C)(C)C)C(=O)O [Compound 314, (S)-2-(2-(1-benzyl-3-methyl-1H-indazol-5-yl)-7-(4-chlorophenyl)-5-methylbenzo[d]thiazol-6-yl)-2-tert-butoxyacetic acid] | 7.38
Cc1cc2nc(-c3ccc4nn(Cc5ccccc5)c(C)c4c3)sc2c(-c2ccc(Cl)cc2)c1[C@H](OC(C)(C)C)C(=O)O [Compound 315, (S)-2-(2-(2-benzyl-3-methyl-2H-indazol-5-yl)-7-(4-chlorophenyl)-5-methylbenzo[d]thiazol-6-yl)-2-tert-butoxyacetic acid] | 7.47
Cc1cc2nc(-c3ccc4nnn(C)c4c3)sc2c(-c2ccc(Cl)cc2)c1[C@H](OC(C)(C)C)C(=O)O [Compound 316, (S)-2-tert-butoxy-2-(7-(4-chlorophenyl)-5-methyl-2-(1-methyl-1H-benzo[d][1,2,3]triazol-6-yl)benzo[d]thiazol-6-yl)acetic acid] | 7.74
Cc1cc2nc(-c3ccn4c(C)nnc4c3)sc2c(-c2ccc(Cl)cc2)c1[C@H](OC(C)(C)C)C(=O)O [Compound 317, (S)-2-tert-butoxy-2-(7-(4-chlorophenyl)-5-methyl-2-(3-methyl-[1,2,4]triazolo[4,3-a]pyridin-7-yl)benzo[d]thiazol-6-yl)acetic acid] | 7.89
Cc1cc2nc(-c3ccn4nnc(C)c4c3)sc2c(-c2ccc(Cl)cc2)c1[C@H](OC(C)(C)C)C(=O)O [Compound 318, (S)-2-tert-butoxy-2-(7-(4-chlorophenyl)-5-methyl-2-(3-methyl-[1,2,3]triazolo[1,5-a]pyridin-5-yl)benzo[d]thiazol-6-yl)acetic acid] | 8.00
Cc1cc2nc(-c3ccn4c(C)nc(C)c4c3)sc2c(-c2ccc(Cl)cc2)c1[C@H](OC(C)(C)C)C(=O)O [Compound 319, (S)-2-tert-butoxy-2-(7-(4-chlorophenyl)-2-(1,3-dimethylimidazo[1,5-a]pyridin-7-yl)-5-methylbenzo[d]thiazol-6-yl)acetic acid] | 8.30
Cc1cc2nc(N3CCOC(C)(c4ccc(Cl)cc4)C3)sc2c(-c2ccc(Cl)cc2)c1[C@H](OC(C)(C)C)C(=O)O (stereo partly drawn) [Compound 322, (2S)-2-tert-butoxy-2-(7-(4-chlorophenyl)-2-(2-(4-chlorophenyl)-2-methylmorpholino)-5-methylbenzo[d]thiazol-6-yl)acetic acid] | 6.19
Cc1ccc(C2(C)CN(c3nc4cc(C)c([C@H](OC(C)(C)C)C(=O)O)c(-c5ccc(Cl)cc5)c4s3)CCO2)cc1 (stereo partly drawn) [Compound 323, (2S)-2-tert-butoxy-2-(7-(4-chlorophenyl)-5-methyl-2-(2-methyl-2-p-tolylmorpholino)benzo[d]thiazol-6-yl)acetic acid] | 6.42
Cc1cc2nc(N3CCOC(c4ccc5c(cnn5C)c4)C3)sc2c(-c2ccc(Cl)cc2)c1[C@H](OC(C)(C)C)C(=O)O (stereo partly drawn) [Compound 324, (2S)-2-tert-butoxy-2-(7-(4-chlorophenyl)-5-methyl-2-(2-(1-methyl-1H-indazol-5-yl)morpholino)benzo[d]thiazol-6-yl)acetic acid] | 7.89
Cc1cc2nc(N3CCO[C@H](c4ccc5c(cnn5C)c4)C3)sc2c(-c2ccc(Cl)cc2)c1[C@H](OC(C)(C)C)C(=O)O [Compound 325, (S)-2-tert-butoxy-2-(7-(4-chlorophenyl)-5-methyl-2-((R)-2-(1-methyl-1H-indazol-5-yl)morpholino)benzo[d]thiazol-6-yl)acetic acid] | 8.00
Cc1cc2nc(N3CCO[C@@H](c4ccc5c(cnn5C)c4)C3)sc2c(-c2ccc(Cl)cc2)c1[C@H](OC(C)(C)C)C(=O)O [Compound 326, (S)-2-tert-butoxy-2-(7-(4-chlorophenyl)-5-methyl-2-((S)-2-(1-methyl-1H-indazol-5-yl)morpholino)benzo[d]thiazol-6-yl)acetic acid] | 7.18

— patent publication US8987250B2 (Gilead Sciences, Inc., priority 2012, dated 2015)
